Laboratory results: US20250213579A1, “COMBINATION THERAPIES” (MIRATI THERAPEUTICS, INC., priority 2018, published 2025)
Like-named read-outs stand apart in the source and are kept apart here.

Test system: H2122 cells
Conditions: H2122 tumors, nude/nude mice, Compound 478 100 mg/kg and/or Dasatinib 50 mg/kg p.o. daily
Method: Immunocompromised nude/nude mice were inoculated in the right hind flank with cells or patient derived tumor samples harboring a KRas G12C mutation. When tumor volumes reached between 200-400 mm^3 in size, the mice were divided into four groups of 5-12 mice each. The first group was administered vehicle only. […] The fourth group was administered the single agent dose of the KRas G12C inhibitor in combination with the single agent dose of the Src-family kinase inhibitor. […] Tumor volumes were measured using a caliper every two-three days and tumor volumes were calculated by the formula: 0.5×(Length×Width)^2.
Tumor volumes were measured at pre-specified days set forth below.

Cc1nc(Nc2ncc(C(=O)Nc3c(C)cccc3Cl)s2)cc(N2CCN(CCO)CC2)n1 [Dasatinib, N-(2-chloro-6-methylphenyl)-2-((6-(4-(2-hydroxyethyl)piperazin-1-yl)-2-methylpyrimidin-4-yl)amino)thiazole-5-carboxamide]
Average Tumor Volumes (Day 11 from inoculation (start of dosing)): 324 mm^3 | Average Tumor Volumes (Day 13 from inoculation): 492 mm^3 | Average Tumor Volumes (Day 15 from inoculation): 596 mm^3 | Average Tumor Volumes (Day 18 from inoculation): 820 mm^3 | tumor growth inhibition (Day 20 (Treatment Day 9)): 23.5% | Average Tumor Volumes (Day 20 from inoculation): 938 mm^3 | Average Tumor Volumes (Day 22 from inoculation): 1086 mm^3 | Average Tumor Volumes (Day 25 from inoculation): 1216 mm^3
